Earlier results in patent US9662346B2, “Method of treating hyperesthesia, paresthesia, dolor, and pruritus caused by insect stings or noxious weeds or plants using avermectin compound” (priority 2007, dated 2017).

Tests used:
[1] = system: head lice; details: single topical application
[2] = oral dosage of a moderate ivermectin concentration

In the case of ivermectin, the “effect on head lice” value [1] is listed as “curative effect” and the safety in human [2] is listed as “safe in human, without serious adverse side effects”.
